What was measured:
Type in all cases: in vivo, Sprague-Dawley rats
[1] = Serum glucose of streptozotosin-induced diabetic rats; conditions: DM+C3G group
Procedure: (§1) Thirty-six 12-wk-old male Sprague-Dawley rats were treated under a protocol approved by the Institutional Animal Care and Use Committee (CUMC-2010-0137-02) and handled according to NIH guidelines. Rats were divided equally into three groups (n=12 in each): control, diabetes (DM), and diabetes with C3G concentration materials treatment (DM+C3G). All rats in the DM and DM+C3G groups received a single intraperitoneal injection of streptozotosin (50 mg/kg). Blood glucose and body weight were monitored weekly and significant diabetes (serum glucose >250 mg/dl) was confirmed in all rats within 1 wk. The diabetic serum level was maintained throughout the experiment. Four weeks after the induction of diabetes, rats in the DM+C3G group were treated with daily oral C3G (10 mg/kg) dissolved in water for 8 weeks. After the 12 weeks, intracavernosal pressure measurement (ICP) was performed, and after ICP measurement, the skin-denuded middle part of the penile shafts was cut and fixed overnight in 10% formalin, washed, and stored in 70% alcohol at 4° C. until processed for paraffin-embedded tissue sectioning (5 μm). Tissue was stored at −80° C. until processing.

[2] = test system: rat model of diabetic erectile dysfunction; assay: Intracavernosal pressure measurement on electrical stimulation of the cavernosal nerve; conditions: diabetic rats, daily oral C3G 10 mg/kg for 8 weeks
Procedure: as §1
Rats were anaesthetized with an intraperitoneal injection of 0.2 mL tiletamine (Zoletil®). […] Both mean arterial pressure (MAP) and ICP were continuously monitored during electrical stimulation. […]

[3] = test system: smooth muscle and collagen in corporal tissue; assay: Masson's trichrome staining of cavernosal tissue
Procedure: as §1
After ICP, the skin denuded middle part of the penile shafts were fixed overnight in 10% formalin, washed, and stored in 70% alcohol at 4° C. until processed for paraffin-embedded tissue sectioning (5 μm). The cavernosal tissue was obtained for the Masson's trichrome staining. After staining, the color distribution of the muscle tissue was approximated by using the Adobe Photoshop CS 8.0. After the entire color distribution of the image was calculated, we selected the muscle tissue distribution, expressed as the color red. There were somewhat standard deviations in our calculation because of color overlays and ambiguity of the color spectrum of the muscle tissues.

[4] = test system: apoptosis in corporal tissue; assay: TUNEL assay for apoptosis; conditions: diabetic rats, daily oral C3G 10 mg/kg for 8 weeks; DM 39.6±4.6, control 15.3±3.0
Procedure: as §1, with “After the 12 weeks, intracavernosal pressure measurement (ICP) was performed, and after ICP measurement, the skin-denuded middle part of the penile shafts was cut and fixed overnight in 10% formalin, washed, and stored in 70% alcohol at 4° C. until processed for paraffin-embedded tissue sectioning (5 μm). Tissue was stored at −80° C. until processing.” left out
To assess apoptosis in the corpora tissues, the terminal deoxynucleotidyl transferase mediated dUTP nick end labeling (TUNEL) assay was performed using Apop Tag In Situ Apoptosis Detection Kits (Millipore Co., MA, US). […] The number of cells positive for the TUNEL assay was counted and the difference among the groups was assessed. For the count of cells positive for the TUNEL assay, 5 sites were selected randomly from a slide of each group, and the number of cells positive for the TUNEL assay was counted as the average of 5 sites under a light microscope at 400× magnification.

eNOS = eNOS protein expression, Western blot of corporal tissue; conditions: C3G treatment group versus DM group, corrected against actin
Procedure: as §1, with “After the 12 weeks, intracavernosal pressure measurement (ICP) was performed, and after ICP measurement, the skin-denuded middle part of the penile shafts was cut and fixed overnight in 10% formalin, washed, and stored in 70% alcohol at 4° C. until processed for paraffin-embedded tissue sectioning (5 μm). Tissue was stored at −80° C. until processing.” left out
(§2) The homogenized buffer solution was placed on ice for 15 min and centrifuged at 4° C. for 13,000 rpm for 15 minutes. […] 30 μg of the quantitative protein was denatured at 95° C. for 5 min and electrophoresis was performed on a 12% discontinuous sodium dodecylsulfate-polyacrylamide gel (SDS-PAGE). […] Chemiluminescence was detected using enhanced chemiluminescence Western blotting detection reagents and densitometric assessment of the bands on the autoradiogram was performed using Bio1D software (version 97; Vilber Lourmat, France). […]

nNOS = nNOS protein expression, Western blot of corporal tissue; conditions: C3G treatment group versus DM group, corrected against actin
Procedure: as §1, with “After the 12 weeks, intracavernosal pressure measurement (ICP) was performed, and after ICP measurement, the skin-denuded middle part of the penile shafts was cut and fixed overnight in 10% formalin, washed, and stored in 70% alcohol at 4° C. until processed for paraffin-embedded tissue sectioning (5 μm). Tissue was stored at −80° C. until processing.” left out
as §2

SOD = SOD protein expression, Western blot of corporal tissue; conditions: DM group treated with C3G
Procedure: as §1, with “After the 12 weeks, intracavernosal pressure measurement (ICP) was performed, and after ICP measurement, the skin-denuded middle part of the penile shafts was cut and fixed overnight in 10% formalin, washed, and stored in 70% alcohol at 4° C. until processed for paraffin-embedded tissue sectioning (5 μm). Tissue was stored at −80° C. until processing.” left out
The homogenized buffer solution was placed on ice for 15 min and centrifuged at 4° C. for 13,000 rpm for 15 minutes. […] 30 μg of the quantitative protein was denatured at 95° C. for 5 min and electrophoresis was performed on a 12% discontinuous sodium dodecylsulfate-polyacrylamide gel (SDS-PAGE). […] Chemiluminescence was detected using enhanced chemiluminescence Western blotting detection reagents and densitometric assessment of the bands on the autoradiogram was performed using Bio1D software (version 97; Vilber Lourmat, France).

[5] = test system: 8-OHdG in corpora tissues; assay: Measurement of 8-OHdG (oxidative stress) by ELISA; conditions: diabetic rats, daily oral C3G 10 mg/kg for 8 weeks; DM 0.917±0.247, normal 0.140±0.13
Procedure: as §1, with “After the 12 weeks, intracavernosal pressure measurement (ICP) was performed, and after ICP measurement, the skin-denuded middle part of the penile shafts was cut and fixed overnight in 10% formalin, washed, and stored in 70% alcohol at 4° C. until processed for paraffin-embedded tissue sectioning (5 μm). Tissue was stored at −80° C. until processing.” left out
Oxidative stress in corpora tissues was evaluated by quantifying the levels of 8-hydroxy-2-deoxyguanosine (8-OHdG) as oxidatively modified DNA. […] Levels of 8-OHdG were measured with a DNA oxidation kit (Highly Sensitive 8-OHdG Check ELISA; Japan Institute for the Control of Aging, Fukuroi, Japan) according to the manufacturer's protocol. […] After the final color was developed with the addition of 3,3′,5,5′-tetramethylbenzidine, absorbance was measured at 450 nm. Tissue sample concentration was calculated from a standard curve and was corrected for DNA concentration.

[6] = C3G treatment group versus DM group

## OC[C@H]1O[C@@H](Oc2cc3c(O)cc(O)cc3[o+]c2-c2ccc(O)c(O)c2)[C@H](O)[C@@H](O)[C@@H]1O [C3G, Cyanidin-3-O-β-d-glucopyranoside]
[1]; 4 wk after diabetes induction (start of daily oral C3G 10 mg/kg)
  Serum glucose: 462 ± 90 mg/dL
[1]; 8 wk, daily oral C3G 10 mg/kg from week 4
  Serum glucose: 448 ± 143 mg/dL
[1]; 12 wk, daily oral C3G 10 mg/kg for 8 weeks
  Serum glucose: 469 ± 163 mg/dL
[1]; Pre-DM induction (before C3G treatment)
  Serum glucose: 141 ± 13 mg/dL
[2]; DM group 0.32 ± 0.06, control 0.77 ± 0.05
  ICP/MAP ratio: 0.55 ± 0.11
[2]; cavernosal nerve stimulation, DM group 35.4 ± 4.5, control 83.3 ± 1.9
  Peak ICP: 58.0 ± 4.6
[3]; [6]
  collagen content of corpora tissues: collagen content decreased
  smooth muscle content of corpora tissues: smooth muscle content increased
[3]; diabetic rats, daily oral C3G 10 mg/kg for 8 weeks, DM 10.6±4.6, control 27.3±3.0
  muscle/collagen ratio: 21.8±1.7
[4]
  mean apoptotic index ± standard deviation (TUNEL): 21.3±1.7
eNOS
  eNOS protein level (western blot, densitogram): levels increased
nNOS
  nNOS protein level (western blot, densitogram): levels increased
SOD
  SOD expression (western blot): expressed more in the DM group treated with C3G than in the control group
[5]
  8-OHdG in the corpora tissue by ELISA: 0.626±0.423
